According to the NIST ThermoML archive (doi:10.1021/acs.jced.8b00537):

Experiment: xn = mol fraction of the nth substance listed
Settings: 100 kPa, Liquid; for viscosity: Capillary tube (Ostwald / Ubbelohde) method; for speed of sound: Frequency=3 MHz, Single path-length method; for mass density: Vibrating tube method

C=CCn1cc[n+](C)c1.O=S(=O)([N-]S(=O)(=O)C(F)(F)F)C(F)(F)F + CCCO
Settings | mass density [kg/m3] | speed of sound [m/s] | viscosity [mPa·s]
293.15 K, x1 = 0.04962 | 915 | 1204.7 | 2.854
293.15 K, x1 = 0.1003 | 1005 | 1193.5 | 3.841
293.15 K, x1 = 0.1995 | 1136 | 1193.5 | 5.727
293.15 K, x1 = 0.2987 | 1228 | 1202.2 | 7.59
293.15 K, x1 = 0.399 | 1297 | 1210.6 | 9.85
293.15 K, x1 = 0.5003 | 1352 | 1221 | 12.17
293.15 K, x1 = 0.6007 | 1394 | 1227.5 | 15.66
293.15 K, x1 = 0.6971 | 1428 | 1234.7 | 19.1
293.15 K, x1 = 0.8024 | 1459 | 1241.9 | 24.1
293.15 K, x1 = 0.8974 | 1483 | 1246.5 | 30.62
293.15 K, x1 = 1 | 1505 | 1251.6 | 41.83
298.15 K, x1 = 0.04962 | – | 1189.4 | –
298.15 K, x1 = 0.1003 | – | 1179 | –
298.15 K, x1 = 0.1995 | – | 1180.2 | –
298.15 K, x1 = 0.2987 | – | 1189.5 | –
298.15 K, x1 = 0.399 | – | 1198.3 | –
298.15 K, x1 = 0.5003 | – | 1208.9 | –
298.15 K, x1 = 0.6007 | – | 1215.6 | –
298.15 K, x1 = 0.6971 | – | 1222.9 | –
298.15 K, x1 = 0.8024 | – | 1230.3 | –
298.15 K, x1 = 0.8974 | – | 1235 | –
298.15 K, x1 = 1 | – | 1240.2 | –
303.15 K, x1 = 0.04962 | 906 | 1174 | 2.215
303.15 K, x1 = 0.1003 | 996 | 1164.6 | 2.899
303.15 K, x1 = 0.1995 | 1126 | 1167 | 4.266
303.15 K, x1 = 0.2987 | 1219 | 1176.9 | 5.633
303.15 K, x1 = 0.399 | 1287 | 1186 | 7.268
303.15 K, x1 = 0.5003 | 1341 | 1197 | 8.94
303.15 K, x1 = 0.6007 | 1384 | 1203.9 | 11.42
303.15 K, x1 = 0.6971 | 1418 | 1211.3 | 13.82
303.15 K, x1 = 0.8024 | 1449 | 1218.8 | 17.21
303.15 K, x1 = 0.8974 | 1472 | 1223.6 | 21.53
303.15 K, x1 = 1 | 1495 | 1228.9 | 28.51
308.15 K, x1 = 0.04962 | 902 | 1158.7 | 1.969
308.15 K, x1 = 0.1003 | 991 | 1150.4 | 2.555
308.15 K, x1 = 0.1995 | 1121 | 1153.9 | 3.74
308.15 K, x1 = 0.2987 | 1214 | 1164.4 | 4.928
308.15 K, x1 = 0.399 | 1282 | 1174 | 6.339
308.15 K, x1 = 0.5003 | 1336 | 1185.2 | 7.782
308.15 K, x1 = 0.6007 | 1379 | 1192.3 | 9.908
308.15 K, x1 = 0.6971 | 1413 | 1199.9 | 11.95
308.15 K, x1 = 0.8024 | 1444 | 1207.5 | 14.8
308.15 K, x1 = 0.8974 | 1467 | 1212.4 | 18.38
308.15 K, x1 = 1 | 1489 | 1217.8 | 23.96
313.15 K, x1 = 0.04962 | 898 | 1143.4 | 1.759
313.15 K, x1 = 0.1003 | 987 | 1136.2 | 2.266
313.15 K, x1 = 0.1995 | 1117 | 1140.9 | 3.302
313.15 K, x1 = 0.2987 | 1209 | 1152 | 4.344
313.15 K, x1 = 0.399 | 1277 | 1162 | 5.574
313.15 K, x1 = 0.5003 | 1331 | 1173.5 | 6.833
313.15 K, x1 = 0.6007 | 1374 | 1180.8 | 8.677
313.15 K, x1 = 0.6971 | 1408 | 1188.6 | 10.42
313.15 K, x1 = 0.8024 | 1439 | 1196.3 | 12.85
313.15 K, x1 = 0.8974 | 1462 | 1201.3 | 15.85
313.15 K, x1 = 1 | 1484 | 1206.8 | 20.41
318.15 K, x1 = 0.04962 | 893 | 1128.2 | 1.577
318.15 K, x1 = 0.1003 | 982 | 1122.1 | 2.021
318.15 K, x1 = 0.1995 | 1112 | 1128 | 2.938
318.15 K, x1 = 0.2987 | 1204 | 1139.7 | 3.858
318.15 K, x1 = 0.399 | 1272 | 1150.1 | 4.937
318.15 K, x1 = 0.5003 | 1326 | 1161.8 | 6.043
318.15 K, x1 = 0.6007 | 1369 | 1169.4 | 7.657
318.15 K, x1 = 0.6971 | 1403 | 1177.4 | 9.174
318.15 K, x1 = 0.8024 | 1434 | 1185.2 | 11.26
318.15 K, x1 = 0.8974 | 1457 | 1190.4 | 13.81
318.15 K, x1 = 1 | 1479 | 1196 | 17.51
323.15 K, x1 = 0.04962 | 889 | 1113 | 1.421
323.15 K, x1 = 0.1003 | 977 | 1108 | 1.813
323.15 K, x1 = 0.1995 | 1107 | 1115.1 | 2.632
323.15 K, x1 = 0.2987 | 1199 | 1127.5 | 3.453
323.15 K, x1 = 0.399 | 1268 | 1138.3 | 4.402
323.15 K, x1 = 0.5003 | 1321 | 1150.3 | 5.384
323.15 K, x1 = 0.6007 | 1364 | 1158.2 | 6.806
323.15 K, x1 = 0.6971 | 1398 | 1166.3 | 8.132
323.15 K, x1 = 0.8024 | 1429 | 1174.3 | 9.945
323.15 K, x1 = 0.8974 | 1452 | 1179.6 | 12.12
323.15 K, x1 = 1 | 1474 | 1185.2 | 15.19
328.15 K, x1 = 0.04962 | 884 | 1097.9 | 1.284
328.15 K, x1 = 0.1003 | 973 | 1094 | 1.635
328.15 K, x1 = 0.1995 | 1102 | 1102.2 | 2.37
328.15 K, x1 = 0.2987 | 1194 | 1115.3 | 3.106
328.15 K, x1 = 0.399 | 1263 | 1126.6 | 3.956
328.15 K, x1 = 0.5003 | 1316 | 1138.8 | 4.83
328.15 K, x1 = 0.6007 | 1359 | 1147 | 6.09
328.15 K, x1 = 0.6971 | 1393 | 1155.3 | 7.262
328.15 K, x1 = 0.8024 | 1424 | 1163.5 | 8.834
328.15 K, x1 = 0.8974 | 1447 | 1168.9 | 10.73
328.15 K, x1 = 1 | 1469 | 1174.7 | 13.23
333.15 K, x1 = 0.04962 | 880 | 1082.7 | 1.166
333.15 K, x1 = 0.1003 | 968 | 1080 | 1.48
333.15 K, x1 = 0.1995 | 1097 | 1089.5 | 2.146
333.15 K, x1 = 0.2987 | 1189 | 1103.1 | 2.812
333.15 K, x1 = 0.399 | 1258 | 1114.9 | 3.573
333.15 K, x1 = 0.5003 | 1312 | 1127.5 | 4.36
333.15 K, x1 = 0.6007 | 1354 | 1135.9 | 5.485
333.15 K, x1 = 0.6971 | 1388 | 1144.5 | 6.518
333.15 K, x1 = 0.8024 | 1419 | 1152.8 | 7.905
333.15 K, x1 = 0.8974 | 1442 | 1158.4 | 9.475
333.15 K, x1 = 1 | 1465 | 1164.2 | 11.62
338.15 K, x1 = 0.04962 | 875 | 1067.5 | 1.061
338.15 K, x1 = 0.1003 | 963 | 1065.9 | 1.347
338.15 K, x1 = 0.1995 | 1092 | 1076.7 | 1.953
338.15 K, x1 = 0.2987 | 1184 | 1091 | 2.558
338.15 K, x1 = 0.399 | 1253 | 1103.4 | 3.252
338.15 K, x1 = 0.5003 | 1307 | 1116.2 | 3.957
338.15 K, x1 = 0.6007 | 1349 | 1124.9 | 4.964
338.15 K, x1 = 0.6971 | 1383 | 1133.8 | 5.889
338.15 K, x1 = 0.8024 | 1414 | 1142.2 | 7.111
338.15 K, x1 = 0.8974 | 1437 | 1147.9 | 8.498
338.15 K, x1 = 1 | 1460 | 1153.8 | 10.28
343.15 K, x1 = 0.04962 | 870 | 1052.3 | 0.971
343.15 K, x1 = 0.1003 | 958 | 1052.2 | 1.23
343.15 K, x1 = 0.1995 | 1088 | 1064.2 | 1.786
343.15 K, x1 = 0.2987 | 1179 | 1078.9 | 2.342
343.15 K, x1 = 0.399 | 1248 | 1092.1 | 2.974
343.15 K, x1 = 0.5003 | 1302 | 1105 | 3.611
343.15 K, x1 = 0.6007 | 1345 | 1114 | 4.521
343.15 K, x1 = 0.6971 | 1378 | 1123.3 | 5.348
343.15 K, x1 = 0.8024 | 1409 | 1131.9 | 6.435
343.15 K, x1 = 0.8974 | 1433 | 1137.8 | 7.661
343.15 K, x1 = 1 | 1455 | 1143.5 | 9.125
